Assays:
[1] = tested on: Th17 differentiation of CD4+ CD25− T cells; settings: read-out: 50% inhibition of IL-17 expressing cell (Th17) development; cited from earlier work
[2] = tested on: translation of luciferase RNA in rabbit reticulocyte lysate; assay: Translation of a luciferase RNA reporter in rabbit reticulocyte lysate; type: biochemical; set-up: key to Translational inhibition: “+++” vs. “++” vs. “+” in general denotes ˜4-fold differences in potency; “+++” vs. “++” vs. “+” in general denotes ˜4-fold differences in potency; “+++” vs. “++” vs. “+” in general denotes ˜4-fold differences in potency; “−” denotes no activity at any dose tested, up to 1000× the effective dose of halofuginone
Protocol: To distinguish these possibilities, the effect of halofuginone on protein translation was examined in an in vitro system (rabbit reticulocyte lysate) in which amino acids are already present at levels adequate to support protein synthesis. […] Distinct tRNA synthetases catalyze the charging of individual tRNA species with their cognate amino acid. To determine which tRNA synthetase is inhibited by halofuginone, several amino acid mixtures were added to the in vitro translation system to determine which, if any, could reverse the inhibition of translation by halofuginone (FIG. 3). […] To examine whether proline could specifically rescue the effect of halofuginone in intact cells, the ability of each amino acid to reverse the effect of halofuginone on eIF2alpha phosphorylation in T-cells or to prevent halofuginone inhibition of Th17 differentiation was tested (FIG. 4). […] Inhibition of EPRS with compounds of the current invention can inhibit Th17 differentiation.
Translation in vitro was performed using rabbit reticulocyte lysates and luciferase mRNA as template. Translation was measured as arbitrary units of luciferase activity using a luminometer based luminescence assay. Log scale presentation of background-subtracted data is shown.
Inhibition of translation of luciferase RNA by halofuginone and analogs thereof was measured as described in FIG. 3 above. Results are shown of translation of a luciferase RNA reporter in a rabbit reticulocyte lysate. “+++” vs. “++” vs. “+” in general denotes ˜4-fold differences in potency. “−” denotes no activity at any dose tested, up to 1000× the effective dose of halofuginone.

[3] = tested on: TGFβ-induced Smad phosphorylation and lymphocyte responses to TGFβ; settings: cited from earlier work
[4] = tested on: eIF2α phosphorylation and ATF4 protein levels in CD4+ CD25− T cells; assay: Amino acid response (AAR) pathway activation in T cells, western blot; type: cell-based, mice
Protocol: CD4+ CD25− T cells purified from wild type of GCN2−/− mice were activated through TCR for 4 hours in the presence of halofuginone (10 nM) or 9 (MAZ1310, 10 nM). Whole cell lysates were analyzed by SDS PAGE/Western blot and antibodies indicated.
Naïve T-cells were treated to stimulate the T-cell receptor (TCR) in the presence or absence of 10 nM halofuginone in the presence of 1 mM added amino acid, and then assayed for eIF2alpha activity phosphorylation by SDS PAGE/Western blot.
HF induced detectable eIF2α phosphorylation at 2.5 nM, and this effect plateaued at 5-10 nM HF (FIG. 7D). […] AAR activation was a general consequence of HF treatment; HF induced eIF2α phosphorylation, not only in T cells activated in Th17-priming conditions, but also in resting naïve T cells and T cells activated in ThN, Th1, Th2, and iTreg polarizing conditions (FIG. 7F). […] Thus, the rapid activation of the AAR pathway by HF could underlie both its selective inhibition of Th17 differentiation and its effects on fibroblasts (Pines and Nagler, Gen. Pharmacol. 30:445, 1998).
To delineate the stress response pathway activated by HF, the effects of amino acid starvation with those of tunicamycin (an inducer of ER stress) or HF treatment during T cell activation were compared.
Whole cell lysates were generated from T cells activated for the indicated times. For STAT3 and Smad2/3 western blots cells were harvested, washed in PBS and lysed in 50 mM Tris, pH 7.4, 0.1% SDS, 1% Triton-X100, 140 mM NaCl, 1 mM EDTA, 1 mM EGTA supplemented with protease inhibitors tablets (Roche, Germany), 1 mM NaF and 1 mM Na3VO4. For eIF2α and ATF4 western blots, cells were harvested as above and lysed in 50 mM Tris, pH 7.4, 2% SDS, 20% glycerol and 2 mM EDTA supplemented with protease and phosphatase inhibitors as above. All lysates were cleared via centrifugation and 15-30 μg of protein was resolved by SDS-PAGE. Protein was transferred to nitrocellulose membranes, blocked and blotted using specific antibodies. Antibodies used for western blot analysis were anti-phospho-Smad2, anti-STAT3 (pY705), anti-STAT3, anti-eIF2α^pS51, anti-eIF2α (all from Cell Signaling Technology, Danvers, Mass.). Anti-ATF4/CREB2 and anti-β-actin were purchased from Santa Cruz Biotechnology (Santa Cruz, Calif.). HRP-conjugated secondary antibodies were all purchased from Sigma, with the exception of HRP-conjugated anti-armenian hamster antibody (Jackson Immunoresearch, West Grove, Pa.).

[5] = tested on: Differentiation of primary naïve T-cells into Th17 cells; assay: Inhibition of Th17 differentiation of primary naïve T-cells by halofuginone analogs; type: cell-based, murine; set-up: key: “+++” vs. “++” vs. “+” in general denotes ˜4-fold differences in potency; “+++” vs. “++” vs. “+” in general denotes ˜4-fold differences in potency; “+++” vs. “++” vs. “+” in general denotes ˜4-fold differences in potency; “−” denotes no activity at any dose tested, up to 1000× the effective dose of halofuginone; settings: T-cell receptor stimulation+IL-6+TGFb
Protocol: Naïve T-cells were stimulated to differentiate in the presence or absence of 10 nM halofuginone, with 1 mM of the indicated amino acids added to the medium, and stained for Th17 differentiation on day 4. Naïve murine T cells were activated in the presence or absence of TGFβ plus IL-6 as indicated, expanded in for 4 days and restimulated with PMA and ionomycin for intracellular cytokine staining. […] Bars indicate percentage of cells differentiation as Th17 as indicated by IL17 expression.
The effect of different halofuginone and analogs thereof on differentiation of naïve T-cells was assayed as described in legend for FIG. 4 above. Differentiation of primary naïve T-cells into Th17 cells following T-cell receptor stimulation+IL-6+TGFb. “+++” vs. “++” vs. “+” in general denotes ˜4-fold differences in potency. “−” denotes no activity at any dose tested, up to 1000× the effective dose of halofuginone.

[6] = tested on: CD4+ CD25− T cells (Th1, Th2, iTreg differentiation, proliferation, CD25), CD8+ T cells, B cells; settings: cited from earlier work

SMILES: O=C(CC1NCCCC1O)Cn1cnc2cc(Br)c(Cl)cc2c1=O (centres unmarked) [Compound 1, 7-bromo-6-chloro-3-[3-(3-hydroxy-2-piperidinyl)-2-oxopropyl]-4(3H)-quinazolinone]
- IC50 [1]: ~3 nM
- inhibition of translation of luciferase ([2]; 400 nM): 5-6 orders of magnitude
- rescue of translation inhibition by added amino acids ([2]; 400 nM halofuginone, 1-2 mM amino acids): Addition of proline, either alone or in combination with phenylaline and serine, rescues inhibition of translation
- Translational inhibition ([2]; luciferase RNA reporter): +++
- concentrations attenuating TGFβ signaling [3]: > 50 nM
- time to maximum eIF2α phosphorylation ([4]; 10 nM HF): ≤ 2 h
- rescue of eIF2alpha phosphorylation by added amino acid ([4]; 10 nM halofuginone, 1 mM added amino acid): blocked by added proline
- phosphorylation of Ser51 of eIF2alpha, GCN2 dependence ([4]; 10 nM, 4 hours, T cells from wild type or GCN2−/− mice): leads to phosphorylation of Ser51 of eif2alpha only in wild type cells and not in GCN2−/− cells
- concentration at which eIF2α phosphorylation plateaued ([4]; 4 hours-post TCR activation): 5 to 10 nM
- concentration inducing detectable eIF2α phosphorylation ([4]; 4 hours-post TCR activation): 2.5 nM
- concentration with highest ATF4 expression levels ([4]; 4 hours-post TCR activation): 5 to 10 nM
- stress response pathway: eIF2α phosphorylation, ATF4 expression, Xbp-1 splicing ([4]; 4 hours, 10 nM HF or 1 μg/ml tunicamycin): inducing eIF2α phosphorylation without promoting Xbp-1 splicing
- Inhibition of Th17 differentiation [5]: +++
- concentrations that generally inhibit CD4+ T cell, CD8+ T cell, and B220+ B cell activation [6]: 20 to 40 nM

Reference: patent publication US9284297B2, “Halofuginone analogs for inhibition of tRNA synthetases and uses thereof” (President and Fellows of Harvard College, priority 2008, dated 2016)
